{"source": "patent US9802918B2", "about": "“Pyridineamine compounds useful as Pim kinase inhibitors” (Incyte Corporation, priority 2015, dated 2017)", "assay_type_in_all_cases": "biochemical", "key": {"Pim-3": {"biological_target": "Pim-3 (Homo sapiens (Human), UniProt Q86V86)", "assay": "Pim-3 kinase assay", "conditions": "1 mM ATP; read-out: Pim3 IC50", "method": "Pim-1 and Pim-3 kinase assays-20 μL reactions were run in white 384 well polystyrene plates dotted with 0.8 μL compound/DMSO in the assay buffer (50 mM Tris, pH 7.5, 0.01% Tween-20, 5 mM mgCl2, 0.01% BSA, 5 mM DTT), containing […] Biotin-labeled BAD peptide substrate (AnaSpec 62269), 1 mM ATP, and 2.5 pM (Pim-1, Invitrogen PV3503) or 1.25 pM (Pim-3, Millipore 14-738) enzyme for 1 h at 25° C. Reactions were stopped by addition of 10 μL STOP Buffer (150 mM Tris, pH=7.5, 150 mM NaCl, 75 mM EDTA, 0.01% Tween-20, 0.3% BSA,) supplemented with Phospho-Bad (Ser112) Antibody (Cell Signaling 9291) diluted 666-fold, and Streptavidin donor beads (PerkinElmer 6760002) along with Protein-A acceptor beads (PerkinElmer 6760137) at 15 μg/mL each. Supplementation of the STOP buffer with beads and stopping the reactions were done under reduced light. Prior to the stopping reactions STOP buffer with beads was preincubated for 1 h in the dark at room temperature. After stopping the reactions, plates were incubated for 1 h in the dark at room temperature before reading on a PHERAstar FS plate reader (BMG Labtech) under reduced light."}, "Pim-2": {"biological_target": "Pim-2 (Homo sapiens (Human), UniProt Q9P1W9)", "sequence (Q9P1W9 whole entry)": "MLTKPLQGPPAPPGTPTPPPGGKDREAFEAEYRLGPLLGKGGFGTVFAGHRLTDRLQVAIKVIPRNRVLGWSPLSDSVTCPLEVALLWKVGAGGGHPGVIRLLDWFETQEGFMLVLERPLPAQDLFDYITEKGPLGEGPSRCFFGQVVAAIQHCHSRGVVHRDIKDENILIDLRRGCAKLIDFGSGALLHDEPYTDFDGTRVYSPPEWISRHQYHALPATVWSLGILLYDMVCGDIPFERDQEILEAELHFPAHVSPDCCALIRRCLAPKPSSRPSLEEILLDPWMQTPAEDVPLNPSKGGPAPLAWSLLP", "assay": "Pim-2 kinase assay", "conditions": "1 mM ATP; read-out: Pim2 IC50", "method": "Pim-2 kinase assay—20 μL reactions were run in white 384 well polystyrene plates dotted with 0.8 μL compound/DMSO in the assay buffer (50 mM Tris, pH 7.5, 0.01% Tween-20, 5 mM mgCl2, 0.01% BSA, 5 mM DTT), containing […] Fluorescein-labeled CREBtide peptide substrate (Invitrogen PV3508), 1 mM ATP, and 1 nM enzyme (Invitrogen PV3649) for 2 h at 25° C. Reactions were stopped by addition of 10 μL TR-FRET Dilution Buffer (Invitrogen PV3574) with 30 mM EDTA and 1.5 nM LanthaScreen Tb-CREB pSer133 antibody (Invitrogen PV3566). After 30 min. incubation at room temperature, plates were read on a PHERAstar FS plate reader (BMG Labtech)."}, "Pim-1": {"biological_target": "Pim-1 (Homo sapiens (Human), UniProt P11309)", "sequence (P11309 whole entry)": "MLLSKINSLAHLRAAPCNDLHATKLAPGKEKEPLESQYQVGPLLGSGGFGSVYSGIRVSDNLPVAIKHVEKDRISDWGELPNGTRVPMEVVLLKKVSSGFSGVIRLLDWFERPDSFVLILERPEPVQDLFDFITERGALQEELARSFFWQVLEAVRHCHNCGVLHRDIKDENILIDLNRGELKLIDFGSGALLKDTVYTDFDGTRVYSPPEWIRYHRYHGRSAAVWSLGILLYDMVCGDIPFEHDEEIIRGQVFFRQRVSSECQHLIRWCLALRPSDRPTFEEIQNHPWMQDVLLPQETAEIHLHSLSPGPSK", "assay": "Pim-1 kinase assay", "conditions": "1 mM ATP; read-out: Pim1 IC50", "method": "Supplementation of the STOP buffer with beads and stopping the reactions were done under reduced light. Prior to the stopping reactions STOP buffer with beads was preincubated for 1 h in the dark at room temperature. After stopping the reactions, plates were incubated for 1 h in the dark at room temperature before reading on a PHERAstar FS plate reader (BMG Labtech) under reduced light."}}, "data": [{"smiles": "C[C@H]1CN(c2ccncc2NCc2ccc(F)c(-c3c(F)cc(CO)cc3F)n2)C[C@@H](N)[C@@H]1O", "note": "[Example 35, (3R,4R,5S)-3-Amino-1-{3-[({6-[2,6-difluoro-4-(hydroxymethyl)phenyl]-5-fluoropyridin-2-yl}methyl)amino]pyridin-4-yl}-5-methylpiperidin-4-ol]", "values": [{"measurement": "IC50", "setting": "Pim-3", "value": "≤ 0.01", "unit": "µM"}, {"measurement": "IC50", "setting": "Pim-2", "value": "≤ 0.1", "unit": "µM"}, {"measurement": "IC50", "setting": "Pim-1", "value": "< 0.01", "unit": "µM"}]}, {"smiles": "C[C@@H]1C[C@H](N)CN(c2ccncc2NCc2ccc(F)c(-c3c(F)cc(CO)cc3F)n2)C1", "note": "[Example 36, (4-{6-[({4-[(3S,5R)-3-Amino-5-methylpiperidin-1-yl]pyridin-3-yl}amino)methyl]-3-fluoropyridin-2-yl}-3,5-difluorophenyl)methanol]", "values": [{"measurement": "IC50", "setting": "Pim-3", "value": "≤ 0.01", "unit": "µM"}, {"measurement": "IC50", "setting": "Pim-2", "value": "≤ 0.1", "unit": "µM"}, {"measurement": "IC50", "setting": "Pim-1", "value": "< 0.01", "unit": "µM"}]}, {"smiles": "C[C@H]1CN(c2ccncc2NCc2ccc(F)c(-c3c(F)cc4ncccc4c3F)n2)C[C@@H](N)[C@@H]1O", "note": "[Example 37, (3R,4R,5S)-3-Amino-1-[3-({[6-(5,7-difluoroquinolin-6-yl)-5-fluoropyridin-2-yl]methyl}amino)pyridin-4-yl]-5-methylpiperidin-4-ol]", "values": [{"measurement": "IC50", "setting": "Pim-3", "value": "≤ 0.01", "unit": "µM"}, {"measurement": "IC50", "setting": "Pim-2", "value": "0.1 to 1", "unit": "µM"}, {"measurement": "IC50", "setting": "Pim-1", "value": "< 0.01", "unit": "µM"}]}, {"smiles": "C[C@@H]1C[C@H](N)CN(c2ccncc2NCc2ccc(F)c(-c3c(F)cc4ncccc4c3F)n2)C1", "note": "[Example 38, 4-[(3S,5R)-3-Amino-5-methylpiperidin-1-yl]-N-{[6-(5,7-difluoroquinolin-6-yl)-5-fluoropyridin-2-yl]methyl}pyridin-3-amine]", "values": [{"measurement": "IC50", "setting": "Pim-3", "value": "≤ 0.01", "unit": "µM"}, {"measurement": "IC50", "setting": "Pim-2", "value": "0.1 to 1", "unit": "µM"}, {"measurement": "IC50", "setting": "Pim-1", "value": "< 0.01", "unit": "µM"}]}, {"smiles": "C[C@H]1CN(c2ccncc2NCc2ccc(F)c(-c3c(F)cc(CN4CCOCC4)cc3F)n2)C[C@@H](N)[C@@H]1O", "note": "[Example 39, (3R,4R,5S)-3-Amino-1-{3-[({6-[2,6-difluoro-4-(morpholin-4-ylmethyl)phenyl]-5-fluoropyridin-2-yl}methyl)amino]pyridin-4-yl}-5-methylpiperidin-4-ol]", "values": [{"measurement": "IC50", "setting": "Pim-3", "value": "≤ 0.01", "unit": "µM"}, {"measurement": "IC50", "setting": "Pim-2", "value": "≤ 0.1", "unit": "µM"}, {"measurement": "IC50", "setting": "Pim-1", "value": "< 0.01", "unit": "µM"}]}, {"smiles": "CNCc1cc(F)c(-c2nc(CNc3cnccc3N3C[C@@H](N)[C@H](O)[C@@H](C)C3)ccc2F)c(F)c1", "note": "[Example 40, (3R,4R,5S)-3-Amino-1-(3-(((6-(2,6-difluoro-4-((methylamino)methyl)phenyl)-5-fluoropyridin-2-yl)methyl)amino)pyridin-4-yl)-5-methylpiperidin-4-ol]", "values": [{"measurement": "IC50", "setting": "Pim-3", "value": "≤ 0.01", "unit": "µM"}, {"measurement": "IC50", "setting": "Pim-2", "value": "0.1 to 1", "unit": "µM"}, {"measurement": "IC50", "setting": "Pim-1", "value": "< 0.01", "unit": "µM"}]}, {"smiles": "C[C@H]1CN(c2ccncc2NCc2ccc(F)c(-c3c(F)cc(CN4CCC4)cc3F)n2)C[C@@H](N)[C@@H]1O", "note": "[Example 41, (3R,4R,5S)-3-Amino-1-(3-(((6-(4-(azetidin-1-ylmethyl)-2,6-difluorophenyl)-5-fluoropyridin-2-yl)methyl)amino)pyridin-4-yl)-5-methylpiperidin-4-ol]", "values": [{"measurement": "IC50", "setting": "Pim-3", "value": "≤ 0.01", "unit": "µM"}, {"measurement": "IC50", "setting": "Pim-2", "value": "0.1 to 1", "unit": "µM"}, {"measurement": "IC50", "setting": "Pim-1", "value": "< 0.01", "unit": "µM"}]}, {"smiles": "C[C@H]1CN(c2ccncc2NCc2ccc(F)c(-c3c(F)cc(CN4CC[C@@H](O)C4)cc3F)n2)C[C@@H](N)[C@@H]1O", "note": "[Example 42, (3R,4R,5S)-3-Amino-1-(3-(((6-(2,6-difluoro-4-(((R)-3-hydroxypyrrolidin-1-yl)methyl)phenyl)-5-fluoropyridin-2-yl)methyl)amino)pyridin-4-yl)-5-methylpiperidin-4-ol]", "values": [{"measurement": "IC50", "setting": "Pim-3", "value": "≤ 0.01", "unit": "µM"}, {"measurement": "IC50", "setting": "Pim-2", "value": "≤ 0.1", "unit": "µM"}, {"measurement": "IC50", "setting": "Pim-1", "value": "< 0.01", "unit": "µM"}]}, {"smiles": "C[C@H]1CN(c2ccncc2NCc2ccc(F)c(-c3c(F)cc(CN4CC[C@H](O)C4)cc3F)n2)C[C@@H](N)[C@@H]1O", "note": "[Example 43, (3R,4R,5S)-3-Amino-1-(3-(((6-(2,6-difluoro-4-(((S)-3-hydroxypyrrolidin-1-yl)methyl)phenyl)-5-fluoropyridin-2-yl)methyl)amino)pyridin-4-yl)-5-methylpiperidin-4-ol]", "values": [{"measurement": "IC50", "setting": "Pim-3", "value": "≤ 0.01", "unit": "µM"}, {"measurement": "IC50", "setting": "Pim-2", "value": "≤ 0.1", "unit": "µM"}, {"measurement": "IC50", "setting": "Pim-1", "value": "< 0.01", "unit": "µM"}]}]}
